Results taken from patent US20110229415A1, “SEMI-SYNTHETIC ANTIBODIES AS RECOGNITION ELEMENTS” (priority 2007, published 2011).

How the values were obtained:
Format in all cases: binding
[1] = biological target: mouse anti-human IL-6 antibody; test: Determination of KD by competitive labeling with 2-N3ATP [γ 32P] and 2-N3ATP-fluorophore; settings: competition with 30 μM 2-N3ATP [γ 32P], 2 μg antibody, photolysis; read-out: apparent KD
Procedure: Determination of KD of the monoclonal antibody for 2-N3ATP-fluorophore. Competitive labeling of the mouse anti-human IL-6 antibody with 2-N3ATP [γ ^32P] and 2-N3ATP-fluorophore was done. 30 μM 2-N3ATP [γ ^32P] and 2 μg of the antibody was added to each 10 μM, 20 μM, 40 μM, 60 μM, 80 μM, 100 μM and 120 μM of 2-N3ATP-fluorophore tube and incubated for 20 min on ice. The tubes were then photolyzed for 1 min 15 s. The reaction was quenched by adding 5 μl of 0.25 mg/ml cysteine and analyzed by SDS/PAGE and autoradiography.

[2] = system: mAb against Osteonectin; test: Labeling of mAb against Osteonectin with radioactive probes
Procedure: 2N3ATP versus [γ^32P] 8N3ATP. Lanes A and D have […] have 10 μL, and C and F have 15 μL of the labeled antibody. [γ^32P] 2N3ATP labels the antibody better than [γ^32P] 8N3ATP.

[3] = system: Mouse anti-Human IL-6 monoclonal antibody; test: Selecting the photoaffinity probe: photolabeling of antibody with radioactive nucleotide probes, SDS PAGE/autoradiography; settings: IL-6 antibody, 300 μM of each probe, pH 4.0
Procedure: Selecting the photoaffinity probe. Two radioactive nucleotide probes, [γ-^32P]8-N3ATP and [γ-^32P]2-N3ATP were tested towards their reactivity with Mouse anti-Human IL-6 monoclonal antibody. For the labeling procedure 8 μg antibody was incubated with 300 μM of each probe in two different tubes in a final volume of 62 μl for 10 min on ice. The buffer used was 100 mM BTP at pH 4.0. After 10 min incubation the two tubes were photolyzed with a hand held UV lamp at 254 nm for 2 min and the reaction mixture was agitated in between to prevent local heating. The reaction was quenched by adding 12 μl of loading dye, PSM (5×) and heating it in a water bath for 5 min. The reaction products were then analyzed by SDS PAGE. ^32P incorporation was detected by autoradiography.

[4] = system: Mouse anti-Human IL-6 monoclonal antibody; test: Saturation of labeling of antibody with photoreactive probe; settings: 2 μg antibody, increasing probe concentrations, photolysis at 254 nm
Procedure: Saturation of labeling. 2 μg of Mouse anti-Human IL-6 monoclonal antibody was incubated with increasing concentrations of [γ-^32P]2-N3ATP for 20 min on ice and photolyzed with a hand held lamp at 254 nm for 1 min 15 sec. The reaction was quenched by adding 5 μl of 0.25 mg/ml cysteine and analyzed by SDS/PAGE and autoradiography.

| Compound | Kd [1] | labeling of the antibody, compared with the 8-azido probe [2] | labeling of the antibody, compared with the 8-azido probe [3] | saturation of photolabeling (probe concentration) [4] |
| --- | --- | --- | --- | --- |
| 2-N3ATP-Alexa Fluor 594 cadaverine | ~17 µM |  |  |  |
| [N-]=[N+]=Nc1nc(N)c2ncn([C@@H]3O[C@H](COP(=O)(O)OP(=O)(O)OP(=O)(O)O)[C@@H](O)[C@H]3O)c2n1 [2-N3ATP, 2-azido ATP] |  | greater efficiency as compared to 8-azido ATP | greater efficiency as compared to 8-N3ATP |  |
| [N-]=[N+]=Nc1nc(N)c2ncn([C@@H]3O[C@H](COP(=O)(O)OP(=O)(O)O[32P](=O)(O)O)[C@@H](O)[C@H]3O)c2n1 [[γ-^32P]-2-N3ATP] |  | better than [γ^32P] 8N3ATP | better than [γ-^32P]-8-N3ATP | ~25 ΞM |
